From patent EP4600243A2, “NOVEL BICYCLIC HETEROCYCLYL COMPOUNDS AND USE THEREOF” (Jeil Pharmaceutical Co., Ltd., priority 2022, dated 2024) come the findings set out here.

In the assay the target is T1, protein-protein interaction between SOS1 and KRAS G12C (Homo sapiens, UniProt Q07889).
T1 construct: purchased Cisbio 64KRASG12PEG
T1 sequence (Q07889 1-1333): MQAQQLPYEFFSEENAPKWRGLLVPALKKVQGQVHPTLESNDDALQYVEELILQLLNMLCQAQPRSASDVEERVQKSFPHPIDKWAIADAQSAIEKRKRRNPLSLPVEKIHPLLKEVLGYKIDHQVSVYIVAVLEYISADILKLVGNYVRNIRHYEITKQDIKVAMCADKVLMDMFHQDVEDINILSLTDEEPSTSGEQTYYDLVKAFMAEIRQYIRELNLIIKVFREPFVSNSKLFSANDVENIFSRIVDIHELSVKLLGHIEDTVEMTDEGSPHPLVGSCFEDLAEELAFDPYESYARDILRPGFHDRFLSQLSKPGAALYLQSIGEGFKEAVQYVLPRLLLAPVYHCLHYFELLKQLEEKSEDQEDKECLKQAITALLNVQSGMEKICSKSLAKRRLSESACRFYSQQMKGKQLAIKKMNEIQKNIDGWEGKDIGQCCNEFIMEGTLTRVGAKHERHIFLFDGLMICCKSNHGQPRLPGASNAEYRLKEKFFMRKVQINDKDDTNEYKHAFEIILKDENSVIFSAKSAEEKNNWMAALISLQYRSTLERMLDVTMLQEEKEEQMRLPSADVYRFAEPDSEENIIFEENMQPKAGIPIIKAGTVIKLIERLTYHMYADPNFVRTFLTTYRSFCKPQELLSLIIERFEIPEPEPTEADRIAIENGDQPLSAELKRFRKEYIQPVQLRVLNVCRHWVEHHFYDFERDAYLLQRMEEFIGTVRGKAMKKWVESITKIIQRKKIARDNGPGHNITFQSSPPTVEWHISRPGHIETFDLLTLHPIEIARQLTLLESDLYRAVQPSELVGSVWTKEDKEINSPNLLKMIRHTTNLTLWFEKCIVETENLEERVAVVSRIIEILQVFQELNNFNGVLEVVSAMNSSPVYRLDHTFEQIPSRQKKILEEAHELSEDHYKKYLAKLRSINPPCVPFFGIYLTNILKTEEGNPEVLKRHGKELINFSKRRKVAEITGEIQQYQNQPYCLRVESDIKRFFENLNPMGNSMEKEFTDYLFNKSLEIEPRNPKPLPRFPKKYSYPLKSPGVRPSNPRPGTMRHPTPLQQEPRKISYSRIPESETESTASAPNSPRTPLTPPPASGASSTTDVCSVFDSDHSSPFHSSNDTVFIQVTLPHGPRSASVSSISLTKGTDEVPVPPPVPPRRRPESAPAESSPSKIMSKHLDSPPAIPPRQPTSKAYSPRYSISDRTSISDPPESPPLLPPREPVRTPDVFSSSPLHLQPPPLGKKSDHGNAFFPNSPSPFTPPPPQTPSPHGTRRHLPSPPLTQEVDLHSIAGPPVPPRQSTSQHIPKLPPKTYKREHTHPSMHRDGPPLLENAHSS
As to the kind of experiment: KRAS::SOS1 HTRF binding analysis (KRAS G12C/SOS1 binding kit). To be noted: compound at 0.1 uM. Here is the method: 1-1. KRAS::SOS1 HTRF binding analysis
An SOS1 inhibitory ability of the example compounds of the present invention was confirmed by identifying the effect of inhibiting a protein-protein interaction between SOS1 and KRAS G12C of the compounds according to examples of the present invention.
Specifically, a KRAS G12C/SOS1 binding kit (64KRASG12PEG, Cisbio, France) was purchased and used. 2 µℓ of Tag1-KRAS G12C and 2 µℓ of GTP were premixed and dispensed 4 µl each into a 384 well plate (6007290, PerkinElmer, USA). 2 µℓ of the compound and 4 µℓ of Tag2-SOS1 were placed and then 10 µℓ of premixed Anti-Tag1 XL665 antibody and Anti-Tag2 Tb cryptate antibody was dispensed to each well. The plates were sealed and allowed to react at room temperature for one hour and 40 minutes, and then 665 nm wavelength and 620 nm wavelength were measured using a HTRF® compatible reader (Synergy H4, BioTeK, USA), and the ratio of receptor and donor emission signals for each well was calculated as 665 nm/620 nm×10^4.
(+++: more than 70 to 100% inhibition, ++: more than 40 to 70% inhibition, +: 0 to 40% inhibition) [Table 4]
On the technique in general: In TR-FRET formats the signal depends on donor and acceptor labels being close together.

A word on the inhibition: it is the drop in the measured response relative to a control, in per cent. As for `C[C@H]1CN(c2ccc3nncc(N[C@H](C)c4cccc(C(F)F)c4F)c3c2)CCO1` [Example 59, N-((R)-1-(3-(difluoromethyl)-2-fluorophenyl)ethyl)-6-((S)-2-methylmorpholino)cinnolin-4-amine], the inhibition at 0.1 µM was in the range of 0 to 40%.

With `C[C@@H](Nc1cnnc2ccc(N3CCN(C(=O)[C@H]4CCOC4)CC3)cc12)c1cccc(C(F)F)c1F` [Example 65, (4-(4-((R)-1-(3-(difluoromethyl)-2-fluorophenyl)ethylamino)cinnolin-6-yl)piperazin-1-yl)((S)-tetrahydrofuran-3-yl)methanone], the inhibition at 0.1 µM was in the range of 40 to 70%. To `C[C@@H](Nc1cnnc2ccc(N[C@@H]3CCOC3)cc12)c1cccc(C(F)F)c1F` [Example 35, N4-((R)-1-(3-(difluoromethyl)-2-fluorophenyl)ethyl)-N6-((R)-tetrahydrofuran-3-yl)cinnolin-4,6-diamine] belongs 0 to 40%; to `C[C@@H](Nc1cnnc2ccc(N[C@@H]3CCNC3)cc12)c1cccc(C(F)F)c1F` [Example 39, N4-((R)-1-(3-(difluoromethyl)-2-fluorophenyl)ethyl)-N6-((R)-pyrrolidin-3-yl)cinnolin-4,6-diamine], 70 to 100%; to `C[C@@H](Nc1cnnc2ccc(N3CC[C@H](F)C3)cc12)c1cccc(C(F)F)c1F` [Example 26, N-((R)-1-(3-(difluoromethyl)-2-fluorophenyl)ethyl)-6-((S)-3-fluoropyrrolidin-1-yl)cinnolin-4-amine], 0 to 40%. To `C[C@@H](Nc1cnnc2ccc(N3C[C@H]4COC[C@H]4C3)cc12)c1cccc(C(F)F)c1F` [Example 29, N-((R)-1-(3-(difluoromethyl)-2-fluorophenyl)ethyl)-6-((3 aR,6aS)-tetrahydro-1H-furo[3,4-c]pyrrol-5(3H)-yl)cinnolin-4-amine] belongs 40 to 70%; to `Cc1c(C#N)cccc1[C@@H](C)Nc1cnnc2ccc(N3CC4CC(C3)O4)cc12` [Example 50, 3-((1R)-1-((6-(6-oxa-3-azabicyclo[3.1.1]heptan-3-yl)cinnolin-4-yl)amino)ethyl)-2-methylbenzonitrile], 0 to 40%; to `C[C@@H](Nc1cnnc2ccc(NC3CCOCC3)cc12)c1cccc(C(F)F)c1F` [Example 37, (R)-N4-(1-(3-(difluoromethyl)-2-fluorophenyl)ethyl)-N6-(tetrahydro-2H-pyran-4-yl)cinnolin-4,6-diamine], 0 to 40%. For the compound `COC1(C)CN(c2ccc3nncc(N[C@H](C)c4cccc(C(F)F)c4F)c3c2)C1` [Example 33, (R)-N-(1-(3-(difluoromethyl)-2-fluorophenyl)ethyl)-6-(3-methoxy-3-methylazetidin-1-yl)cinnolin-4-amine], the inhibition at 0.1 µM fell in the range of 0 to 40%.

As to `C[C@@H](Nc1cnnc2ccc(N3CC(O)C3)cc12)c1cccc(C(F)F)c1F` [Example 30, (R)-1-(4-((1-(3-(difluoromethyl)-2-fluorophenyl)ethyl)amino)cinnolin-6-yl)azetidin-3-ol], the inhibition at 0.1 µM lay in the range of 0 to 40%. Regarding `C[C@@H](Nc1cnnc2ccc(N3CCSCC3)cc12)c1cccc(C(F)F)c1F` [Example 17, (R)-N-(1-(3-(difluoromethyl)-2-fluorophenyl)ethyl)-6-thiomorpholinocinnolin-4-amine], the inhibition at 0.1 µM lay within 0 to 40%. Under `C[C@@H](Nc1cnnc2ccc(N3CC4CC(C3)O4)cc12)c1cccc(C(F)F)c1F` [Example 12, 6-(6-oxa-3-azabicyclo[3.1.1]heptan-3-yl)-N-((R)-1-(3-(difluoromethyl)-2-fluorophenyl)ethyl)cinnolin-4-amine] stands 40 to 70%; under `C[C@@H](Nc1cnnc2ccc(N3CC4CC(C3)O4)cc12)c1cccc(C(F)F)c1` [Example 42, 6-(6-oxa-3-azabicyclo[3.1.1]heptan-3-yl)-N-((R)-1-(3-(difluoromethyl)phenyl)ethyl)cinnolin-4-amine], 0 to 40%. For `C[C@@H](Nc1cnnc2ccc(N3C[C@H]4C[C@@H]3CO4)cc12)c1cccc(C(F)F)c1` [Example 44, 6-((1R,4R)-2-oxa-5-azabicyclo[2.2.1]heptan-5-yl)-N-((R)-1-(3-(difluoromethyl)phenyl)ethyl)cinnolin-4-amine], the inhibition at 0.1 µM fell in the range of 0 to 40%.

Consider `C[C@@H](Nc1cnnc2ccc(N3CC[C@@H](F)C3)cc12)c1cccc(C(F)F)c1F` [Example 25, N-((R)-1-(3-(difluoromethyl)-2-fluorophenyl)ethyl)-6-((R)-3-fluoropyrrolidin-1-yl)cinnolin-4-amine], for which the inhibition at 0.1 µM was 0 to 40%. Under `C[C@@H](Nc1cnnc2ccc(N3CCN(C4COC4)CC3)cc12)c1cccc(C(F)F)c1F` [Example 8, (R)-N-(1-(3-(difluoromethyl)-2-fluorophenyl)ethyl)-6-(4-(oxetan-3-yl)piperazin-1-yl)cinnolin-4-amine] stands 0 to 40%; under `C[C@@H](Nc1cnnc2ccc(N3CCC[C@H](O)C3)cc12)c1cccc(C(F)F)c1F` [Example 21, (S)-1-(4-(((R)-1-(3-(difluoromethyl)-2-fluorophenyl)ethyl)amino)cinnolin-6-yl)piperidin-3-ol], 40 to 70%; under `C[C@@H](Nc1cnnc2ccc(C3=CCOCC3)cc12)c1cccc(C(F)F)c1F` [Example 4, (R)-N-(1-(3-(difluoromethyl)-2-fluorophenyl)ethyl)-6-(3,6-dihydro-2H-pyran-4-yl)cinnolin-4-amine], 0 to 40%. To `C[C@@H](Nc1cnnc2ccc(N3CC[C@@H](O)C3)cc12)c1cccc(C(F)F)c1F` [Example 27, (R)-1-(4-(((R)-1-(3-(difluoromethyl)-2-fluorophenyl)ethyl)amino)cinnolin-6-yl)pyrrolidin-3-ol] belongs 40 to 70%; to `COC1CCN(c2ccc3nncc(N[C@H](C)c4cccc(C(F)F)c4F)c3c2)CC1` [Example 22, (R)-N-(1-(3-(difluoromethyl)-2-fluorophenyl)ethyl)-6-(4-methoxypiperidin-1-yl)cinnolin-4-amine], 0 to 40%. Take `C[C@@H](Nc1cnnc2ccc(N3CC4(COC4)C3)cc12)c1cccc(C(F)F)c1F` [Example 11, (R)-N-(1-(3-(difluoromethyl)-2-fluorophenyl)ethyl)-6-(2-oxa-6-azaspiro[3.3]heptan-6-yl)cinnolin-4-amine]: the inhibition at 0.1 µM was in the range of 0 to 40%.

In the case of `C[C@@H](Nc1cnnc2ccc(N3CC4CC(C3)O4)cc12)c1cc(O)cc(C(F)F)c1` [Example 55, 3-((1R)-1-((6-(6-oxa-3-azabicyclo[3.1.1]heptan-3-yl)cinnolin-4-yl)amino)ethyl)-5-(difluoromethyl)phenol], the inhibition at 0.1 µM lay in the range of 0 to 40%. `Cc1c([C@@H](C)Nc2cnnc3ccc(N4CC5(CN(C)C5)C4)cc23)cccc1C(F)(F)F` [Example 49, (R)-N-(1-(2-methyl-3-(trifluoromethyl)phenyl)ethyl)-6-(6-methyl-2,6-diazaspiro[3.3]heptan-2-yl)cinnolin-4-amine]: the inhibition at 0.1 µM lay in the range of 0 to 40%. To `C[C@@H](Nc1cnnc2ccc(N3CCC[C@@H](O)C3)cc12)c1cccc(C(F)F)c1F` [Example 20, (R)-1-(4-(((R)-1-(3-(difluoromethyl)-2-fluorophenyl)ethyl)amino)cinnolin-6-yl)piperidin-3-ol] belongs 0 to 40%.
